{"source": "patent US20260355239A1", "about": "“COMBINATION OF A T CELL THERAPY AND CONTINUOUS OR INTERMITTENT DGK INHIBITOR DOSING” (Juno Therapeutics, Inc., priority 2022, published 2026)", "key": {"anti-CD19 CAR-T cells": {"tested_on": "anti-CD19 CAR-T cells", "experiment": "CAR-T cell viability", "assay_type": "cell-based, human", "conditions": "acute stimulation assays", "source_text": "T cell compositions containing T cells expressing an exemplary anti-CD19 CAR were generated from leukapheresis samples from two healthy human adult donors by a process that included immunoaffinity-based selection of T cells by separately selecting CD4+ and CD8+ cells from the samples, resulting in two compositions enriched for CD4+ and CD8+ cells, respectively, per donor. Cells of the enriched CD4+ and CD8+ compositions were separately activated with anti-CD3/anti-CD28 beads and subjected to lentiviral transduction with a vector encoding an anti-CD19 CAR. […]\nPrior to use, the cryopreserved CD4+ and CD8+ CAR-engineered cell compositions were thawed and combined at approximately a 1:1 CD4:CD8 ratio for each donor to prepare a combined CD4+ CAR+ and CD8+ CAR+ T cell composition. The effects of treatment with Compound 17 at various concentrations (0.1 nM, 1 nM, 10 nM, 100 nM, or 1000 nM) added at day 0 during stimulation of the combined CAR-T cell composition with a plate-bound CAR-specific anti-idiotypic antibody (see, e.g., WO2018/023100) or during co-culture with CD19-expressing cells was then assessed."}, "[1]": {"tested_on": "anti-CD19 CAR-T cells with A549.CD19 and Granta-519 tumor spheroids", "experiment": "Cytokine production of chronically stimulated, concurrently treated CAR-T cells, 3D spheroids", "assay_type": "cell-based, human", "conditions": "concurrent treatment during chronic stimulation, five days", "experimental": "To simulate conditions of chronic stimulation, approximately 20,000 anti-CD19 CAR-expressing T cells of a combined CAR-T cell composition produced as described in Example 2 from two healthy adult donors were incubated with 30 µg/mL of plate-bound CAR-specific anti-idiotypic antibody (see, e.g., WO2018/023100) at 37 °C for a period of seven days. During this seven-day period, engineered CAR T cells were concurrently treated with Compound 17(0.1-1000 nM) or a vehicle control added at day 0.\nTo further assess activity of chronically stimulated cell, the chronically stimulated CAR-T cells that had been concurrently treated with DGKi were incubated with A549 CD19+ tumor spheroids or Granta-519 tumor spheroids to rechallenge the CAR-T cells at an effector to target ratio of 1:2 for up to 14 days. The tumor spheroids were engineered to express a red fluorescent dye to permit monitoring of tumor cell lysis by microscopy during the assay.\nSupernatant was collected at day 5 from the above tumor spheroid cultures with chronically stimulated CAR-expressing T cells. Cytokine production was measured from the supernatant by meso scale discovery (MSD) analysis of the collected cell supernatants. […] Duplicate values for cell compositions manufactured from the two different healthy donors are shown."}, "Nalm6-rFluc cells": {"tested_on": "Nalm6-rFluc cells", "experiment": "Tumor cell re-challenge after CAR T cell combination, Nalm6-rFluc (Example 11)", "assay_type": "in vivo, NSG mice", "experimental": "Mice in Example 10 who received the CAR T cell combination with continuous Compound 17 dosing regimen were re-challenged by intravenous injection of 5×10^6 Nalm6-rFluc cells on Day 71. For comparison, 5×10^6 Nalm6-rFluc cells were intravenously injected into naive mice that had not previously been injected with or administered Nalm6-rFluc cells, CAR T cells, or Compound 17 (n=4 per group). […] Tumor burden was assessed for 10 days following re-challenge. Survival of treated mice was assessed until 30 days post re-challenge."}, "[2]": {"tested_on": "anti-CD19 CAR-T cells with A549.CD19 and Granta-519 tumor spheroids", "experiment": "Rescue treatment: cytokine production of chronically stimulated CAR-T cells, 3D spheroids", "assay_type": "cell-based, human", "conditions": "3D spheroid co-culture, five days", "experimental": "Anti-CD19 CAR-expressing T cells, produced as described in Example 2, were chronically stimulated with plate-bound CAR-specific anti-idiotypic antibody for seven days as described in Example 3, but in the absence of Compound 17 during chronic stimulation. Instead, chronically stimulated CAR T cells were treated with Compound 17 during re-challenge with CD19-expressing tumor cells, after which cytolytic activity and cytokine production were assessed.\nCytolytic activity also was assessed in CD19-expressing tumor spheroid cultures incubated with chronically stimulated CAR-T cells in the presence of DGKi. A549 CD19+ tumor spheroids or Granta-519 tumor spheroids were incubated with the anti-CD19 CAR-expressing T cells at an effector to target ratio of 1:2 for up to 14 days in the presence of DGKi (0-1000 nM). The tumor spheroids were engineered to express a red fluorescent dye to permit monitoring of tumor cell lysis by microscopy during the assay. Cytolytic activity was assessed by monitoring fluorescence over time, and the tumor volume (normalized to time zero) was measured as the number of red calibrated units (RCU)×μm^2 area. […]\nSupernatant was collected at day 5 from the above tumor spheroid cultures with chronically stimulated CAR-expressing T cells. Cytokine production was measured from the supernatant by meso scale discovery (MSD) analysis of the collected cell supernatants. […]"}, "[3]": {"tested_on": "HPV-expressing CaSki cells", "experiment": "Rescue treatment: cytolytic function of chronically stimulated eTCR T cells", "assay_type": "cell-based, human", "conditions": "100 nM, 2.5:1 effector:target, 10 or 20 μg/mL anti-Vbeta chronic stimulation", "source_text": "Primary human CD4+ and CD8+ T cells were isolated from healthy donors by immunoaffinity-based methods. The isolated CD4+ and CD8+ T cells were combined and stimulated with an anti-CD3/anti-CD28 reagent, and then were transduced with a lentiviral vector encoding an anti-human papillomavirus 16 (anti-HPV16) eTCR. The nucleotide sequences encoding the beta chain and the alpha chain of the eTCR were separated by a sequence encoding a 2A ribosome skip element. Following transduction, the cells were cultured in media containing human serum and cytokines for 9-10 days prior to further assessment.\nTo assess the effects of rescue treatment with Compound 17 on cytolytic function, eTCR cells were stimulated for six days using 10 μg/mL or 20 μg/mL plate-bound antibody against the TCR Vbeta chain in the absence of Compound 17.\nFollowing chronic stimulation, the eTCR-T cells were co-cultured with HPV-expressing CaSki cells at a 2.5:1 effector:target ratio in the presence of Compound 17 at 100 nM. As a control, chronically stimulated eTCR cells were co-cultured with CaSki cells in the absence of Compound 17. The CaSki cells were transduced with NucLight Red (NLR) and tumor cell number was monitored by Incucyte®."}, "[4]": {"tested_on": "Granta-519 tumor spheroids", "experiment": "Rescue treatment: cytolytic activity of chronically stimulated CAR-T cells, 3D spheroids, Granta-519", "assay_type": "cell-based, human", "conditions": "day 9"}, "[5]": {"conditions": "Compound 17: 0.3 mg/kg oral once daily Days 1-30 with CAR T cells, or KO CAR T cells"}, "[6]": {"conditions": "Compound 17: 0.3 mg/kg oral once daily Days 1-30 with CAR T cells, or KO CAR T cells, vs CAR T cells without DGK KO alone"}}, "data": [{"smiles": "CC[C@H]1CN([C@@H](CC)c2ccc(C(F)(F)F)cc2)[C@H](CC)CN1c1nc(=O)n(C)c2ccc(C#N)nc12", "note": "[Compound 17, 4-((2S,5R)-2,5-diethyl-4-((S)-1-(4-(trifluoromethyl)phenyl)propyl)piperazin-1-yl)-1-methyl-2-oxo-1,2-dihydropyrido[3,2-d]pyrimidine-6-carbonitrile]", "values": [{"measurement": "T cell viability", "setting": "anti-CD19 CAR-T cells", "value": "no impact of Compound 17 on T cell viability was observed"}, {"measurement": "production of IFNγ, IL-2 and TNFα", "setting": "[1]", "value": "dose-dependent increase in production of all three cytokines"}, {"measurement": "survival after re-challenge", "setting": "Nalm6-rFluc cells; re-challenge Day 71 after CAR T + Compound 17, until 30 days post re-challenge", "value": "survival benefit"}, {"measurement": "tumor growth after re-challenge", "setting": "Nalm6-rFluc cells; re-challenge Day 71 after CAR T + Compound 17, vs naive mice", "value": "delayed tumor growth"}, {"measurement": "CAR T cell expansion and/or persistence", "setting": "Raji-rFluc cells; [5]", "value": "improved CAR T cell expansion and/or persistence"}, {"measurement": "tumor burden", "setting": "Raji-rFluc cells; [5]", "value": "tumor burden was reduced"}, {"measurement": "anti-tumor efficacy (tumor control index)", "setting": "Raji-rFluc cells; [6]", "value": "improved anti-tumor efficacy"}, {"measurement": "survival", "setting": "Raji-rFluc cells; [6]", "value": "improved survival"}, {"measurement": "tumor burden, survival, and CAR T cell expansion and/or persistence vs DGKα/ζ dual KO CAR T cells", "setting": "Raji-rFluc cells; continuous DGKi administration with CAR T cells", "value": "comparable to those achieved with administration of DGKα/ζ dual KO CAR T cells"}, {"measurement": "production of IFNγ, IL-2 and TNFα", "setting": "[2]", "value": "dose-dependent increase in production of all three cytokines"}, {"measurement": "cytolytic function of chronically stimulated eTCR cells", "setting": "[3]", "value": "able to improve cytolytic function of chronically stimulated eTCR cells"}, {"measurement": "cytolytic activity of CAR T cells against Granta-519 spheroids", "setting": "[4]", "value": "improved the cytolytic activity of CAR T cells against both A549.CD19 and Granta-519 tumor spheroids"}]}]}
